The values below come from patent publication US20080318910A1, “Controlled-Release Oral Dosage Form” (MISTRAL PHARMA, INC., priority 2005, published 2008).

The series in a line: physchem.

Converted amounts (≈) assume the structure as drawn.

The solubility is the concentration that dissolves in the medium under given conditions.

On to `CCC(COC(=O)c1cc(OC)c(OC)c(OC)c1)(c1ccccc1)N(C)C` (stereo not shown) [Trimebutine], for which the solubility (pH 2, simulated gastric fluid) was about 11000 µg/mL (≈ 28.4 mM) and the concentration in solution (pH 5.5, aqueous buffer) (solubility) came to 1000 µg/mL (≈ 2.58 mM).

With `C/C=C/C=C/C(=O)O` [Sorbic acid], the solubility was about 333000 µg/mL (≈ 2970 mM) (aqueous buffer, solubility, pH higher than 4.8) and about 2500 µg/mL (≈ 22.3 mM) (aqueous buffer, solubility, pH lower than 4.8).
